Experiment: xn = mol fraction of the nth substance listed

O=C(O)[C@H](O)[C@@H](O)C(=O)O + C[N+](C)(C)CCO.[Cl-]
viscosity [mPa·s]
Conditions	303 K	313 K	313.2 K	323 K
101 kPa, x2 = 0.5	1281000	240000	–	73300
101.3 kPa, x2 = 0.669	–	–	6790	–

CC[N+](=O)[O-] + Cc1cc(C)cc(C)c1
293.15 K, 101.33 kPa
Conditions	viscosity [mPa·s]
x1 = 0.0912	0.69
x1 = 0.1908	0.685
x1 = 0.2974	0.68
x1 = 0.3871	0.675
x1 = 0.5179	0.669
x1 = 0.6112	0.665
x1 = 0.6912	0.665
x1 = 0.7813	0.669
x1 = 0.8874	0.671

CCCCN + Cc1ccc(C)cc1
303.15 K, 101 kPa
Conditions	viscosity [mPa·s]
x1 = 0.0795	0.545
x1 = 0.1507	0.53
x1 = 0.2545	0.511
x1 = 0.3628	0.494
x1 = 0.4612	0.481
x1 = 0.5562	0.471
x1 = 0.6469	0.464
x1 = 0.7338	0.457
x1 = 0.8144	0.451
x1 = 0.8979	0.448
x1 = 0.9456	0.444

CC[N+](=O)[O-] + Cc1ccc(C)cc1
293.15 K, 101.33 kPa
Conditions	viscosity [mPa·s]
x1 = 0.0968	0.633
x1 = 0.1917	0.629
x1 = 0.3	0.627
x1 = 0.4039	0.626
x1 = 0.4933	0.626
x1 = 0.6083	0.629
x1 = 0.6994	0.633
x1 = 0.7938	0.644
x1 = 0.9011	0.66

CCCCN + Cc1cccc(C)c1
303.15 K, 101 kPa
Conditions	viscosity [mPa·s]
x1 = 0.0824	0.525
x1 = 0.1495	0.516
x1 = 0.2739	0.497
x1 = 0.387	0.484
x1 = 0.4543	0.476
x1 = 0.5525	0.469
x1 = 0.6484	0.462
x1 = 0.7553	0.457
x1 = 0.816	0.453
x1 = 0.8978	0.448
x1 = 0.9469	0.445

CCCCN + Cc1ccccc1
303.15 K, 101 kPa
Conditions	viscosity [mPa·s]
x1 = 0.0685	0.51
x1 = 0.1474	0.497
x1 = 0.2553	0.485
x1 = 0.328	0.474
x1 = 0.4247	0.464
x1 = 0.5197	0.457
x1 = 0.6107	0.453
x1 = 0.6993	0.449
x1 = 0.7946	0.446
x1 = 0.8819	0.445
x1 = 0.9407	0.444
x2 = 0.1475	0.4405
x2 = 0.2127	0.441
x2 = 0.2918	0.439
x2 = 0.3842	0.4402
x2 = 0.5074	0.4449
x2 = 0.6083	0.4543
x2 = 0.7064	0.4677
x2 = 0.8686	0.4956

CCCCN + Cc1ccccc1C
303.15 K, 101 kPa
Conditions	viscosity [mPa·s]
x1 = 0.0811	0.648
x1 = 0.1509	0.624
x1 = 0.2681	0.587
x1 = 0.3574	0.56
x1 = 0.4598	0.535
x1 = 0.546	0.518
x1 = 0.6419	0.499
x1 = 0.7306	0.484
x1 = 0.8169	0.469
x1 = 0.8974	0.457
x1 = 0.9503	0.45

CCCCN + ClC(Cl)(Cl)Cl
viscosity [mPa·s], 101 kPa
Conditions	293.15 K	298.15 K	303.15 K	308.15 K
x1 = 0.1017	0.924	0.86	0.806	0.76
x1 = 0.1975	0.879	0.818	0.766	0.723
x1 = 0.2974	0.832	0.774	0.726	0.684
x1 = 0.3676	0.799	0.743	0.697	0.657
x1 = 0.4895	0.742	0.69	0.647	0.61
x1 = 0.5536	0.712	0.661	0.621	0.585
x1 = 0.6318	0.675	0.627	0.589	0.555
x1 = 0.6708	0.657	0.61	0.573	0.54
x1 = 0.7779	0.606	0.563	0.53	0.499
x1 = 0.8299	0.582	0.54	0.508	0.479
x1 = 0.912	0.543	0.504	0.475	0.447

CC[N+](=O)[O-] + ClC(Cl)(Cl)Cl
viscosity [mPa·s], 101 kPa
Conditions	x1 = 0.1	x1 = 0.2	x1 = 0.3	x1 = 0.4	x1 = 0.5	x1 = 0.6	x1 = 0.7	x1 = 0.8	x1 = 0.9
303.15 K	0.7767	0.7448	0.7173	0.6971	0.6667	0.6402	0.6152	0.5924	0.5824
308.15 K	0.7408	0.6988	0.6673	0.6509	0.6305	0.6024	0.5769	0.5634	0.5522
318.15 K	0.6485	0.6213	0.597	0.5764	0.5533	0.5327	0.514	0.4996	0.4945
